According to publication PMC10552397 (Cell Communication and Signaling : CCS, 2023):

What was measured:
HeLa wt cells = assay: Immunofluorescence of LC3 and LAMP1; assay type: cell-based; settings: 2 h; prodigiosin 100 nM, BafA1 10 nM
Experimental: For immunofluorescence microscopy, HeLa cells were seeded on glass coverslips in 24-well plates. After treatment, cells were fixed in 4% paraformaldehyde for 15 min on ice, quenched with 50 mM NH4Cl for 15 min and permeabilized with 50 µg/mL digitonin (Sigma-Aldrich, St. Louis, MO, USA, #D141) for 5 min. Fixed samples were blocked with 3% BSA (Roth, Karlsruhe, Germany, #8076) for 30 min or overnight and incubated with primary antibodies diluted in 3% BSA for 2 h. Samples were then washed three times with DPBS, incubated with the appropriate secondary antibodies diluted in 3% BSA for 30 min and washed three times with DPBS. Afterwards, cells were embedded in ProLong Glass Antifade Mountant (Thermo Fisher Scientific, Waltham, MA, USA, #P36980) containing 1 µg/mL DAPI (Roth, Karlsruhe, Germany, #6335.1). Images were recorded with an Axio Observer 7 fluorescence microscope (Carl Zeiss Microscopy, Oberkochen, Germany) using a 40x/1,4 Oil DIC M27 Plan-Apochromat objective (Carl Zeiss Microscopy, Oberkochen, Germany) and an ApoTome 2 (Carl Zeiss Microscopy, Oberkochen, Germany).

EFEMP1 = molecular target: T1, EFEMP1 (Homo sapiens, UniProt Q12805); assay: TPP-TR/RTSA, EFEMP1; assay type: binding
T1 construct: endogenous in cells; host or cells: HeLa wt cells
T1 sequence (Q12805 18-493): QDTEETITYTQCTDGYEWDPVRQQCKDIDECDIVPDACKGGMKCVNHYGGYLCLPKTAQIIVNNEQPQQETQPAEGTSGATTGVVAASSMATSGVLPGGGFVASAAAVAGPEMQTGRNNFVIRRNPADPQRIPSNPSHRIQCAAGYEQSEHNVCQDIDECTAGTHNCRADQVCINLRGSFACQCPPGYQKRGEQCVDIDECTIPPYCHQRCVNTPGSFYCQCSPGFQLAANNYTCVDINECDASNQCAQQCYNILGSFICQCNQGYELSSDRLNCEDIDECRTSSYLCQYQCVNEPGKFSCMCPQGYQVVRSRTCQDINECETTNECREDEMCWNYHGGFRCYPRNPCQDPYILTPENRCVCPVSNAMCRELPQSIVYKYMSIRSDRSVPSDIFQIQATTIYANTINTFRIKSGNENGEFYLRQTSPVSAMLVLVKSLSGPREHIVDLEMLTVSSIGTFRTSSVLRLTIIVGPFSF
Experimental: TPP was performed essentially as described, but with major modifications to the TMT labeling sets and statistical data analysis for TPP-TR.
Adherent cells were washed in the dish once with DPBS and harvested by Trypsin–EDTA (0.25%, Thermo Fisher Scientific, Waltham, MA, USA, #25,200,056) treatment. […]
After temperature treatment, samples were supplemented with lysis buffer (final concentrations: 0.36 U/µL benzonase, 1.5 mM MgCl2, 1 mM Na3VO4, 10 mM NaF, 2.5 mM Na4P2O7, 0.8% w/v NP-40) for 1 h on ice. […] The total protein concentration of the resulting cell extracts containing the fraction of soluble, non-denatured proteins was determined (Pierce 660 nm Protein Assay, BSA as standard). […] The two (37 °C or 50 °C) x ten (concentrations) x three (replicates) = 60 TPP-CCR samples and two (treatment and control) x ten (temperatures) x three (replicates) = 60 TPP-TR samples were analyzed by LC–MS/MS. GRASP55 was additionally quantified from the TPP-TR samples by immunoblotting as described in the respective section.
For TPP-CCR, SP3 was performed as described with slight modifications to the original protocol using on average 5 µg total protein per sample and resulting in theoretically 5 µg peptides in 22 µL 50 mM triethylammonium bicarbonate per sample. […] This volume was calculated such that the lowest two temperature samples (36.5 °C and 41.2 °C) contained 10 µg total protein on average. […]

## CCCCCC1=C/C(=C/c2[nH]c(-c3ccc[nH]3)cc2OC)N=C1C [Prodigiosin, prodigiosin]
HeLa wt cells
  LC3-positive structures: increase
  co-localization of LC3- and LAMP1-positive structures: highly significant increase
EFEMP1; 100 nM vs DMSO, 6 h, HeLa wt, read-out: Mean_dTm
  ΔTm at 0.1 µM: 1.55 °C
EFEMP1; RTSA distance score
  distancescore: 13.326
